Laboratory results reported in ChEMBL document CHEMBL1153340, “Inhibitors of HIV-1 attachment. Part 2: An initial survey of indole substitution patterns” (Bioorg Med Chem Lett, 2009).

Columns and labels:
[1] = Terminal half life in rat at 5 mg/kg, iv dosed as solution in PEG400/EtOH; format: ADME, organism-based; set-up: dose 5 mg/kg, route intravenous; conditions: in vivo, read-out: beta t1/2
[2] = Cytotoxicity against human HeLa67 cells expressing CD4/CCR5 after 3 days by XTT assay; format: cell-based
[3] = Volume of distribution at steady state in rat at 5 mg/kg, iv dosed as solution in PEG400/EtOH; format: ADME, organism-based; set-up: dose 5 mg/kg, route intravenous; conditions: in vivo, read-out: Vdss
[4] = Cmax in rat at 25 mg/kg, po dosed as solution in PEG400/EtOH; format: ADME, organism-based; set-up: dose 25 mg/kg, route oral; conditions: in vivo
[5] = Permeability across human Caco-2 cells; format: ADME, cell-based; conditions: read-out: permeability
[6] = Oral bioavailability in rat at 25 mg/kg dosed as solution in PEG400/EtOH; format: ADME, organism-based; conditions: in vivo
[7] = tested on: Human immunodeficiency virus 1; experiment: Antiviral activity against pseudotype HIV1 JRFL infected in human HeLa67 cells expressing CD4/CCR5 after 3 days by luciferase reporter gene assay; format: functional, organism-based; conditions: Human immunodeficiency virus 1, JRFL, HeLa67, 72 h
[8] = Tmax in rat at 25 mg/kg, po dosed as solution in PEG400/EtOH; format: ADME, organism-based; set-up: dose 25 mg/kg, route oral; conditions: in vivo
[9] = Mean residence time in rat at 5 mg/kg, iv dosed as solution in PEG400/EtOH; format: ADME, organism-based; set-up: dose 5 mg/kg, route intravenous; conditions: in vivo
[10] = Terminal half life in rat at 25 mg/kg, po dosed as solution in PEG400/EtOH; format: ADME, organism-based; set-up: dose 25 mg/kg, route oral; conditions: in vivo, read-out: beta t1/2
[11] = Clearance in rat at 5 mg/kg, iv dosed as solution in PEG400/EtOH; format: ADME, organism-based; set-up: dose 5 mg/kg, route intravenous; conditions: in vivo
[12] = Tmax in rat at 5 mg/kg, po dosed as solution in PEG400/EtOH; format: ADME, organism-based; set-up: dose 5 mg/kg, route oral; conditions: in vivo
[13] = Terminal half life in rat at 5 mg/kg, po dosed as solution in PEG400/EtOH; format: ADME, organism-based; set-up: dose 5 mg/kg, route oral; conditions: in vivo, read-out: beta t1/2
[14] = Volume of distribution at steady state in rat at 1 mg/kg, iv dosed as solution in PEG400/EtOH; format: ADME, organism-based; set-up: dose 1 mg/kg, route intravenous; conditions: in vivo, read-out: Vdss
[15] = Oral bioavailability in rat at 5 mg/kg dosed as solution in PEG400/EtOH; format: ADME, organism-based; conditions: in vivo
[16] = Clearance in rat at 1 mg/kg, iv dosed as solution in PEG400/EtOH; format: ADME, organism-based; set-up: dose 1 mg/kg, route intravenous; conditions: in vivo
[17] = Mean residence time in rat at 1 mg/kg, iv dosed as solution in PEG400/EtOH; format: ADME, organism-based; set-up: dose 1 mg/kg, route intravenous; conditions: in vivo
[18] = Cmax in rat at 5 mg/kg, po dosed as solution in PEG400/EtOH; format: ADME, organism-based; set-up: dose 5 mg/kg, route oral; conditions: in vivo
[19] = Terminal half life in rat at 1 mg/kg, iv dosed as solution in PEG400/EtOH; format: ADME, organism-based; set-up: dose 1 mg/kg, route intravenous; conditions: in vivo, read-out: beta t1/2
[20] = tested on: Human immunodeficiency virus 1; experiment: Antiviral activity against pseudotype HIV1 LAI infected in human HeLa67 cells expressing CD4/CCR5 after 3 days by luciferase reporter gene assay; format: functional, organism-based; conditions: Human immunodeficiency virus 1, LAI, HeLa67, 72 h

| SMILES | CC50 at 72 h [2] [µM] | EC50 [7] [nM] | further results |
| --- | --- | --- | --- |
| O=C(C(=O)N1CCN(C(=O)c2ccccc2)CC1)c1c[nH]c2ccccc12 | 339 | 153 | half-life [1]: 0.5 h; Vd [3]: 1.5 L/kg; Cmax [4]: 1040 ng/mL; Papp [5]: 22.8 ×10⁻⁶ cm/s; bioavailability [6]: 29%; Tmax [8]: 0.55 h; MRT [9]: 0.433 h; half-life [10]: 2.72 h; clearance [11]: 57 mL/min/kg |
| CCOc1cccc2c(C(=O)C(=O)N3CCN(C(=O)c4ccccc4)CC3)c[nH]c12 | 117 | 0.5 | – |
| N#Cc1ccc2[nH]cc(C(=O)C(=O)N3CCN(C(=O)c4ccccc4)CC3)c2c1 | > 300 | 121000 | – |
| COc1ccc(Cl)c2[nH]cc(C(=O)C(=O)N3CCN(C(=O)c4ccccc4)CC3)c12 | > 300 | 0.07 | – |
| O=C(C(=O)N1CCN(C(=O)c2ccccc2)CC1)c1c[nH]c2cccc(Br)c12 | 142 | 4.5 | – |
| O=C(C(=O)N1CCN(C(=O)c2ccccc2)CC1)c1c[nH]c2cccc([N+](=O)[O-])c12 | > 300 | 150 | – |
| CC(=O)Oc1ccc2[nH]cc(C(=O)C(=O)N3CCN(C(=O)c4ccccc4)CC3)c2c1 | 95.2 | 952 | – |
| O=C(C(=O)N1CCN(C(=O)c2ccccc2)CC1)c1c[nH]c2cc(Cl)ccc12 | > 110 | 208 | – |
| COc1ccc2c(C(=O)C(=O)N3CCN(C(=O)c4ccccc4)CC3)c[nH]c2c1 | > 300 | 329 | – |
| CC(=O)Oc1cccc2[nH]cc(C(=O)C(=O)N3CCN(C(=O)c4ccccc4)CC3)c12 | > 300 | 24900 | – |
| C/C=C/n1cc(C(=O)C(=O)N2CCN(C(=O)c3ccccc3)CC2)c2ccccc21 | 202 | 6760 | – |
| O=C(C(=O)N1CCN(C(=O)c2ccccc2)CC1)c1c[nH]c2c(F)c(F)c(F)c(F)c12 | 55.7 | 1.7 | – |
| CCn1cc(C(=O)C(=O)N2CCN(C(=O)c3ccccc3)CC2)c2ccccc21 | > 300 | 1450 | – |
| O=C(C(=O)N1CCN(C(=O)c2ccccc2)CC1)c1cn(Cc2ccccc2)c2ccccc12 | 182 | 13800 | – |
| CCCCn1cc(C(=O)C(=O)N2CCN(C(=O)c3ccccc3)CC2)c2ccccc21 | > 300 | 2650 | – |
| COc1ccc2[nH]cc(C(=O)C(=O)N3CCN(C(=O)c4ccccc4)CC3)c2c1 | > 300 | 21100 | – |
| O=C(C(=O)N1CCN(C(=O)c2ccccc2)CC1)c1c[nH]c2ccc([N+](=O)[O-])cc12 | 44.6 | 3800 | – |
| CCOc1cccc2[nH]cc(C(=O)C(=O)N3CCN(C(=O)c4ccccc4)CC3)c12 | > 94.8 | 0.45 | – |
| O=C(C(=O)N1CCN(C(=O)c2ccccc2)CC1)c1c[nH]c2c(Br)ccc(OC(F)(F)F)c12 | 75.7 | 42.8 | – |

| SMILES | CC50 at 72 h [2] [µM] | EC50 [7] [nM] | further results |
| --- | --- | --- | --- |
| O=C(C(=O)N1CCN(C(=O)c2ccccc2)CC1)c1c[nH]c2ccc(F)cc12 | > 300 | 838 | – |
| O=C(C(=O)N1CCN(C(=O)c2ccccc2)CC1)c1c[nH]c2ccc(Cl)cc12 | 46 | 395 | – |
| O=C(C(=O)N1CCN(C(=O)c2ccccc2)CC1)c1c[nH]c2ccc(Br)cc12 | > 149 | 1090 | – |
| O=C(C(=O)N1CCN(C(=O)c2ccccc2)CC1)c1c[nH]c2c(Br)ccc(F)c12 | 39.8 | 0.13 | – |
| Cc1ccc2[nH]cc(C(=O)C(=O)N3CCN(C(=O)c4ccccc4)CC3)c2c1 | > 300 | 1550 | – |
| O=C(C(=O)N1CCN(C(=O)c2ccccc2)CC1)c1c[nH]c2cc(F)c(Br)c(F)c12 | 20.9 | 23.1 | – |
| O=C(C(=O)N1CCN(C(=O)c2ccccc2)CC1)c1c[nH]c2c(F)ccc(F)c12 | > 300 | 0.35 | Tmax [12]: 0.333 h; half-life [13]: 9.18 h; Vd [14]: 0.85 L/kg; Papp [5]: 21.9 ×10⁻⁶ cm/s; bioavailability [15]: 11%; clearance [16]: 46.9 mL/min/kg; MRT [17]: 0.317 h; Cmax [18]: 55 ng/mL; half-life [19]: 0.283 h |
| CCc1cccc2c(C(=O)C(=O)N3CCN(C(=O)c4ccccc4)CC3)c[nH]c12 | > 49 | 24.2 | – |
| O=C(C(=O)N1CCN(C(=O)c2ccccc2)CC1)c1c[nH]c2cc(F)c(F)cc12 | 170 | > 290 | – |
| N#Cc1cccc2c(C(=O)C(=O)N3CCN(C(=O)c4ccccc4)CC3)c[nH]c12 | 234 | 4.9 | – |
| CCCCOc1cccc2c(C(=O)C(=O)N3CCN(C(=O)c4ccccc4)CC3)c[nH]c12 | 64.5 | 0.14 | – |
| N#Cc1ccc(F)c2c(C(=O)C(=O)N3CCN(C(=O)c4ccccc4)CC3)c[nH]c12 | > 300 | 1.9 | – |
| O=C(C(=O)N1CCN(C(=O)c2ccccc2)CC1)c1c[nH]c2cc(F)cc(F)c12 | > 188 | 0.42 | – |
| O=C(C(=O)N1CCN(C(=O)c2ccccc2)CC1)c1c[nH]c2c(Br)cccc12 | 64 | 17.4 | – |
| Cc1cccc2c(C(=O)C(=O)N3CCN(C(=O)c4ccccc4)CC3)c[nH]c12 | > 218 | 89.5 | – |
| N#Cc1ccc(F)c2[nH]cc(C(=O)C(=O)N3CCN(C(=O)c4ccccc4)CC3)c12 | > 300 | > 500 | – |
| O=C(C(=O)N1CCN(C(=O)c2ccccc2)CC1)c1c[nH]c2cc(C(F)(F)F)ccc12 | 54.5 | > 5000 | – |
| Cc1ccc(C)c2c(C(=O)C(=O)N3CCN(C(=O)c4ccccc4)CC3)c[nH]c12 | 202 | > 500 | – |
| O=C(C(=O)N1CCN(C(=O)c2ccccc2)CC1)c1c[nH]c2cccc(O)c12 | > 300 | 20100 | – |

| SMILES | CC50 at 72 h [2] [µM] | EC50 [7] [nM] | further results |
| --- | --- | --- | --- |
| COc1ccc(Br)c2[nH]cc(C(=O)C(=O)N3CCN(C(=O)c4ccccc4)CC3)c12 | 118 | 0.13 | – |
| O=C(C(=O)N1CCN(C(=O)c2ccccc2)CC1)c1c[nH]c2cc(Cl)c(F)cc12 | 98.5 | > 500 | – |
| Cc1ccc(F)c2c(C(=O)C(=O)N3CCN(C(=O)c4ccccc4)CC3)c[nH]c12 | 87.5 | 0.56 | – |
| COc1ccc(OC)c2c(C(=O)C(=O)N3CCN(C(=O)c4ccccc4)CC3)c[nH]c12 | 279 | 0.23 | Tmax [12]: 3 h; half-life [13]: 1.85 h; Vd [14]: 0.52 L/kg; bioavailability [15]: 107%; clearance [16]: 5.2 mL/min/kg; MRT [17]: 1.7 h; Cmax [18]: 3200 ng/mL; half-life [19]: 2.3 h |
| COc1ccc(C#N)c2[nH]cc(C(=O)C(=O)N3CCN(C(=O)c4ccccc4)CC3)c12 | > 275 | 0.06 | – |
| O=C(C(=O)N1CCN(C(=O)c2ccccc2)CC1)c1c[nH]c2c(F)cccc12 | > 152 | 7.3 | – |
| Cn1cc(C(=O)C(=O)N2CCN(C(=O)c3ccccc3)CC2)c2ccccc21 | 226 | 265 | – |
| COc1cc2[nH]cc(C(=O)C(=O)N3CCN(C(=O)c4ccccc4)CC3)c2cc1OC | > 300 | 46500 | – |
| O=C(C(=O)N1CCN(C(=O)c2ccccc2)CC1)c1c[nH]c2c(Cl)cccc12 | 162 | 4.4 | – |
| CC(C)Oc1cccc2[nH]cc(C(=O)C(=O)N3CCN(C(=O)c4ccccc4)CC3)c12 | 150 | > 500 | – |
| COc1ccc(F)c2c(C(=O)C(=O)N3CCN(C(=O)c4ccccc4)CC3)c[nH]c12 | > 300 | 0.06 | – |
| O=C(C(=O)N1CCN(C(=O)c2ccccc2)CC1)c1c[nH]c2c(Br)cc(F)cc12 | 22.5 | 73.1 | – |
| COc1cccc2c(C(=O)C(=O)N3CCN(C(=O)c4ccccc4)CC3)c[nH]c12 | 154 | 6.6 | – |
| O=C(C(=O)N1CCN(C(=O)c2ccccc2)CC1)c1c[nH]c2cc(Cl)c(Cl)cc12 | 52.3 | – | EC50 [20]: 0.5 µM |
| O=C(C(=O)N1CCN(C(=O)c2ccccc2)CC1)c1c[nH]c2c(OCC(F)(F)F)ccc(F)c12 | 196 | 0.71 | – |
| O=C(C(=O)N1CCN(C(=O)c2ccccc2)CC1)c1c[nH]c2cccc(Cl)c12 | 212 | 4.3 | – |
| COc1cccc2[nH]cc(C(=O)C(=O)N3CCN(C(=O)c4ccccc4)CC3)c12 | > 300 | 0.52 | – |
| O=C(C(=O)N1CCN(C(=O)c2ccccc2)CC1)c1c[nH]c2cc(F)ccc12 | > 245 | 21.1 | – |
| O=C(C(=O)N1CCN(C(=O)c2ccccc2)CC1)c1c[nH]c2c(F)ccc(Br)c12 | 86 | 8.2 | – |
